Measured values published in patent US10221163B2 (priority 2015, dated 2019).
Where two headings read alike, the source gives them in different places.

How the values were obtained:
[1] = tested on: Pseudomonas aeruginosa efflux− (MB9799), IMP-1; format: cell-based; conditions: concentration restoring susceptibility to imipenem at 2 μg/mL in the presence of a class A, C, D serine β-lactamase inhibitor closely related to relebactam
Method in brief: (§1)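 Steps: add fixed imipenem and/or ceftazidime (usually CLSI breakpoint) and fixed AmpC-directed class A/C inhibitor to microbroth MIC wells; titrate MBL inhibitor; record concentration regaining susceptibility for each PAO1-derived strain; divide efflux+ by efflux− value.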

[2] = tested on: Pseudomonas aeruginosa efflux+ (MB9798), IMP-1; format: cell-based; conditions: concentration restoring susceptibility to imipenem at 2 μg/mL in the presence of a class A, C, D serine β-lactamase inhibitor closely related to relebactam
Method in brief: as §1

VIM-1 = VIM-1 (Pseudomonas aeruginosa (strain ATCC 15692 / DSM 22644 / CIP 104116 / JCM 14847 / LMG 12228 / 1C / PRS 101 / PAO1), UniProt A0A0F7KYQ8); test: biochemical; conditions: CCF2-FA substrate, 30 pM enzyme, 2 hours at 25° C.
Method in brief: (§2)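 Class B activity is measured in the presence of compound by fluorescence with CCF2-FA after a 2-hour incubation at 25° C. IC50 is taken from a 4-parameter fit of semi-logarithmic dose-response data.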

IMP-1 = IMP-1 (Serratia marcescens, UniProt P52699); test: biochemical; format: biochemical; conditions: fluorescence assay, CCF2-FA substrate, 2 pM enzyme, 2 hours at 25° C.; read-out: IMP-1 IC50
Chain of IMP-1 (P52699 whole entry, looked up, species assumed): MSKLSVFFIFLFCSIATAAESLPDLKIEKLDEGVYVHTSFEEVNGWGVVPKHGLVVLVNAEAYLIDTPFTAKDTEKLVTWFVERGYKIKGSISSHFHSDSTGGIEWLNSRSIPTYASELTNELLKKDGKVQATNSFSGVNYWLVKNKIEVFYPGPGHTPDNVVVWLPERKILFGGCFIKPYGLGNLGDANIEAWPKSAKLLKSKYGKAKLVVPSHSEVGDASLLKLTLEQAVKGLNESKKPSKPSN
Method in brief: as §2

NDM-1 = NDM-1 (Klebsiella pneumoniae, UniProt C7C422); test: biochemical; format: biochemical; conditions: fluorescence assay, CCF2-FA substrate, 1 pM enzyme, 2 hours at 25° C.; read-out: NDM-1 IC50
Chain of NDM-1 (C7C422 whole entry, looked up, species assumed): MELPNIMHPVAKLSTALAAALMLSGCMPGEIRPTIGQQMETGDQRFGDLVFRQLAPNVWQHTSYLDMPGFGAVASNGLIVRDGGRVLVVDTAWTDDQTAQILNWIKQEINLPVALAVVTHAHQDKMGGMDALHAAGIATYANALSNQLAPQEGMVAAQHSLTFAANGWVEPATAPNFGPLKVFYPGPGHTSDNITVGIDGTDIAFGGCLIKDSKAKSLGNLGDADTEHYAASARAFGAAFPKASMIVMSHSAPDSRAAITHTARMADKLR
Method in brief: as §2

[3] = tested on: Pseudomonas aeruginosa MB9798 vs MB9799; conditions: ratio MITC95 PA_9798/MITC95 PA_9799
Method in brief: as §1

[4] = tested on: Escherichia coli expressing NDM-1 (CLB30005, CLB30016); format: cell-based; conditions: NDM-1 strain, with imipenem 1 μg/ml, 95% inhibition of growth
Method in brief: (§3)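 Growth by absorbance after 22–24 h at 35°C defined the read-out, with imipenem fixed at 1 μg/ml alongside compound. Inocula came from overnight blood-agar colonies at 35°C, resuspended in saline and diluted 1:100 in 1.1×CAMHB.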

[5] = tested on: Klebsiella pneumoniae expressing VIM-1 (IHMA599644); format: cell-based; conditions: VIM-1 strain IHMA599644, with imipenem 1 μg/ml, 95% inhibition of growth
Method in brief: as §3

[6] = tested on: Serratia marcescens expressing IMP-1 (CL5741); format: cell-based; conditions: IMP-1 strain CL5741, with imipenem 1 μg/ml, 95% inhibition of growth
Method in brief: as §3

[7] = fluorescence assay, read-out: VIM-1 IC50

SMILES	P. aeruginosa expressing IMP-1, efflux − (MB9799) MITC95 [1]	P. aeruginosa expressing IMP-1, efflux + (MB9798) MITC95 [2]	IC50 (VIM-1; VIM-1 IC50, fluorescence assay)	IC50 (IMP-1)	IC50 (NDM-1)	Efflux ratio [3]	Escherichia coli MITC95 [4]	Klebsiella pneumoniae MITC95 [5]	Serratia marcescens MITC95 [6]	IC50 (VIM-1; [7])
Nc1ncccc1-c1ccc(S(=O)(=O)NC[C@@H]2CNCCN2)c(S(N)(=O)=O)c1-c1nn[nH]n1 [Example 313, (S)-4-(2-aminopyridin-3-yl)-N1-(piperazin-2-ylmethyl)-3-(2H-tetrazol-5-yl)benzene-1,2-disulfonamide]	1.563 µM	3.125 µM	0.149 nM	1.3 nM	0.0817 nM	2.00	0.3906 µM	3.125 µM	0.7813 µM	
Nc1nc2c(-c3ccc(S(=O)(=O)NC[C@H]4CNCCN4)c(S(N)(=O)=O)c3-c3nn[nH]n3)cccc2[nH]1 [Example 314, (R)-4-(2-amino-1H-benzo[d]imidazol-4-yl)-N1-(piperazin-2-ylmethyl)-3-(2H-tetrazol-5-yl)benzene-1,2-disulfonamide]	0.7813 µM	0.7813 µM		0.485 nM	0.0326 nM	1.00	0.7813 µM	1.563 µM	1.563 µM	0.114 nM
Nc1ccc(-c2ccc(S(=O)(=O)NC[C@H]3CNCCN3)c(S(N)(=O)=O)c2-c2nn[nH]n2)cn1 [Example 315, (R)-4-(6-aminopyridin-3-yl)-N1-(piperazin-2-ylmethyl)-3-(1H-tetrazol-5-yl)benzene-1,2-disulfonamide]	1.563 µM	1.563 µM	0.211 nM	0.459 nM	0.169 nM	1.00	0.3906 µM	6.25 µM	0.7813 µM	
Nc1ncccc1-c1ccc(S(=O)(=O)NC[C@H]2CNCCN2)c(S(N)(=O)=O)c1-c1nn[nH]n1 [Example 316, (R)-4-(2-aminopyridin-3-yl)-N1-(piperazin-2-ylmethyl)-3-(1H-tetrazol-5-yl)benzene-1,2-disulfonamide]	1.563 µM	3.125 µM	0.211 nM	2.33 nM	0.175 nM	2.00	0.3906 µM	6.25 µM	0.7813 µM	
C[C@H](CN)NS(=O)(=O)c1ccc(-c2ccnc(N)c2)c(-c2nn[nH]n2)c1S(N)(=O)=O [Example 317, (R)—N1-(1-aminopropan-2-yl)-4-(2-aminopyridin-4-yl)-3-(2H -tetrazol-5-yl) benzene-1,2-disulfonamide]	3.125 µM	1.563 µM		0.495 nM	0.17 nM	0.50	0.7813 µM	3.125 µM	1.563 µM	0.133 nM
C[C@H](CN)NS(=O)(=O)c1ccc(-c2cccc(N)n2)c(-c2nn[nH]n2)c1S(N)(=O)=O [Example 318, (R)—N1-(1-aminopropan-2-yl)-4-(6-aminopyridin-2-yl)-3-(2H-tetrazol-5-yl) benzene-1,2-disulfonamide]	1.563 µM	1.563 µM	0.142 nM	0.704 nM	0.158 nM	1.00	0.7813 µM	3.125 µM	3.125 µM	
Nc1ccc2cccc(-c3ccc(S(=O)(=O)N[C@@H]4CNC[C@@H]4N)c(S(N)(=O)=O)c3-c3nn[nH]n3)c2n1 [Example 319, N^1-((3R,4S)-4-aminopyrrolidin-3-yl)-4-(2-aminoquinolin-8-yl)-3-(2H-tetrazol-5-yl)benzene-1,2-disulfonamide]	0.7813 µM	0.7813 µM		0.265 nM	0.0483 nM	1.00	1.563 µM	1.563 µM	1.563 µM	0.206 nM
N[C@H]1CNC[C@H]1NS(=O)(=O)c1ccc(-c2cnc3cc[nH]c3c2)c(-c2nn[nH]n2)c1S(N)(=O)=O [Example 320]	0.7813 µM	1.563 µM	0.296 nM	1.21 nM	0.0902 nM	2.00	0.7813 µM	3.125 µM	0.7813 µM	
Nc1ncc(-c2ccc(S(=O)(=O)N[C@@H]3CNC[C@@H]3N)c(S(N)(=O)=O)c2-c2nn[nH]n2)s1 [Example 321, N^1-((3R,4S)-4-aminopyrrolidin-3-yl)-4-(2-aminothiazol-5-yl)-3-(2H -tetrazol-5-yl)benzene-1,2-disulfonamide]	0.7813 µM	1.563 µM	0.958 nM	1.25 nM	0.376 nM	2.00	0.7813 µM	3.125 µM	1.563 µM	
N[C@H](CO)c1nc2c(-c3ccc(S(=O)(=O)N[C@H]4CNC[C@H]4N)c(S(N)(=O)=O)c3-c3nn[nH]n3)cccc2[nH]1 [Example 323, 4-(2-((S)-1-amino-2-hydroxyethyl)-1H-benzo[d]imidazol-4-yl)-N1-((3S,4R)-4-aminopyrrolidin-3-yl)-3-(2H-tetrazol-5-yl)benzene-1,2-disulfonamide]	1.563 µM	1.563 µM	0.321 nM	3.39 nM	0.219 nM	1.00	1.563 µM	3.125 µM	3.125 µM	
Nc1ccc2cccc(-c3ccc(S(=O)(=O)N[C@H]4CNC[C@H]4N)c(S(N)(=O)=O)c3-c3nn[nH]n3)c2n1 [Example 324, N1-((3S,4R)-4-aminopyrrolidin-3-yl)-4-(2-aminoquinolin-8-yl)-3-(1H-tetrazol-5-yl)benzene-1,2-disulfonamide]	0.7813 µM	0.7813 µM		0.213 nM	0.0387 nM	1.00	1.563 µM	1.563 µM	0.7813 µM	0.13 nM
Nc1ncc(-c2ccc(S(=O)(=O)N[C@H]3CNC[C@H]3N)c(S(N)(=O)=O)c2-c2nn[nH]n2)s1 [Example 325, N1-((3S,4R)-4-aminopyrrolidin-3-yl)-4-(2-aminothiazol-5-yl)-3-(2H-tetrazol-5-yl)benzene-1,2-disulfonamide]	0.7813 µM	1.563 µM	0.896 nM	1.22 nM	0.724 nM	2.00	0.7813 µM	3.125 µM	1.563 µM	
N[C@@H]1CNC[C@@H]1NS(=O)(=O)c1ccc(-c2cnc3cc[nH]c3c2)c(-c2nn[nH]n2)c1S(N)(=O)=O [Example 326, N1-((3S,4R)-4-aminopyrrolidin-3-yl)-4-(1H-pyrrolo[3,2-b]pyridin-6-yl)-3-(2H-tetrazol-5-yl)benzene-1,2-disulfonamide]	1.563 µM	1.563 µM	0.115 nM	0.65 nM	0.0502 nM	1.00	0.7813 µM	1.563 µM	1.563 µM	
